# Marks after values point to notes of the source that are not given here.
# System: endogenous dopamine release in the human brain
# Assay: [^11C]PHNO PET of endogenous dopamine release after d-AMPH challenge
# Type: in vivo
# Details: for effect on [^11C]PHNO BPND: d-AMPH 0.5 mg/kg single oral dose, all ROI; for ΔBPND^AMPH Mean (SD), Ca / ΔBPND^AMPH Mean (SD), GP / ΔBPND^AMPH Mean (SD), Pu / ΔBPND^AMPH Mean (SD), SN / ΔBPND^AMPH Mean (SD), VSt: d-AMPH only scan
# Description: A T1-weighted magnetic resonance imaging (MRI) scan of the brain, performed at screening, was used to obtain anatomical information required for PET data analysis. Each subject underwent three [^11C]PHNO PET scans, one at baseline, the second approximately 3 h after a single oral dose of dex-amphetamine (d-AMPH, 0.5 mg/kg), and the third approximately 5 h after a single oral dose of Compound (I) (20 or 40 mg) and 3 h after an oral dose of dex-amphetamine (d-APMH) (0.5 mg/kg) (FIG. 2).
# Subjects were positioned in the PET scanner, after the insertion of a venous cannula in an antecubital or forearm vein. Soft padding and head restraints were used to minimize head movement during data acquisition. All dynamic [^11C]PHNO PET scans were acquired on Siemens Biograph 6 PET/CT scanners (Hi-Rez (PET/CT1) or a TruePoint with TrueV, Siemens Healthcare, Erlangen, Germany). All scans for a particular subject were acquired on the same scanner. A low-dose computed tomography (CT) scan was performed immediately before each PET study to estimate signal attenuation. Following an intravenous bolus injection of [^11C]PHNO, dynamic emission data were acquired for 90 min in 26 frames of increasing duration. The dynamic images were reconstructed using Fourier rebinning and a 2D filtered discrete inverse Fourier transform algorithm with 5 mm isotropic Gaussian filter on a 128×128 matrix with 2.6 zoom giving 2 mm isotropic voxels. Appropriate corrections were applied for attenuation, randoms, and scatter.
# The primary set of ROIs defined were the ventral striatum (VSt), putamen (Pu) and cerebellum. […] The cerebellum was used as a reference region. An additional set of ROIs including the caudate nucleus (Ca), globus pallidus (GP) and substantia nigra (SN) was also evaluated.
# Regional TAC data extracted from the PET images were fitted using a basis function implementation of the SRTM (Gunn et al., 1997) to estimate the binding potential relative to the non-displaceable component (BPND) for each PET scan, as a measure of specific binding (Innis et al., 2007).
# Reduction in [^11C]-PHNO specific binding following a d-AMPH challenge (ΔBPND^APMH) was quantified as percent change in postdose BPND (BPND^AMPH) from baseline BPND (BPND^BL):
# Reduction in [^11C]-PHNO specific binding following a combination of Compound (I) and d-AMPH (ΔBPND^APMH+C1) was quantified as percent change in postdose BPND (BPND^AMPH+C1) from baseline BPND (BPND^BL):
# The effect of Compound (I) (ΔΔBPND) was quantified as the percent change BPND in ΔBPND^APMH+C1 compared to ΔBPND^APMH:
# All statistical comparisons were conducted using Student's t-tests for each ROI, using paired tests for within subject comparisons, and unpaired tests for between group comparisons.
# [1] = subjects of the 20 mg Compound (I) group
# [2] = subjects of the 40 mg Compound (I) group
structure (smiles),measurement,setting,value
"C[C@H](N)Cc1ccccc1 [d-AMPH, Dextroamphetamine, reference compound]",effect on [^11C]PHNO BPND,,significant reduction in BPND
same,effect on [^11C]PHNO BPND,listed as d-APMH,robust reduction of [^11C]PHNO BPND
same,"ΔBPND^AMPH Mean (SD), Ca",all subjects,15.6 (5.7) * %
same,"ΔBPND^AMPH Mean (SD), GP",all subjects,15.9 (7.7) * %
same,"ΔBPND^AMPH Mean (SD), Pu",all subjects,21.6 (5.1) * %
same,"ΔBPND^AMPH Mean (SD), SN",all subjects,27.8 (10.9) * %
same,"ΔBPND^AMPH Mean (SD), VSt",all subjects,26.5 (7.7) * %
same,"ΔBPND^AMPH Mean (SD), Ca",[1],17.8 (5.7) * %
same,"ΔBPND^AMPH Mean (SD), GP",[1],17.6 (1.5) * %
same,"ΔBPND^AMPH Mean (SD), Pu",[1],23.6 (4.6) * %
same,"ΔBPND^AMPH Mean (SD), SN",[1],28.4 (9.0) * %
same,"ΔBPND^AMPH Mean (SD), VSt",[1],25.4 (8.0) * %
same,"ΔBPND^AMPH Mean (SD), Ca",[2],13.4 (5.3) * %
same,"ΔBPND^AMPH Mean (SD), GP",[2],14.2 (11.1) * %
same,"ΔBPND^AMPH Mean (SD), Pu",[2],19.6 (5.3) * %
same,"ΔBPND^AMPH Mean (SD), SN",[2],27.2 (13.6) * %
same,"ΔBPND^AMPH Mean (SD), VSt",[2],27.6 (8.2) * %
